In patent US20100317528A1, “HERBICIDE CONTAINING BENZOYLPYRAZOLE COMPOUND” (ISHIHARA SANGYO KAISHA, LTD., priority 2006, published 2010) one finds inhibition data, which are given here for four compounds.

Holding throughout (format): in vivo
Test [1] relates to barnyardgrass (Echinochloa crus-galli L.). Nature of the test: Test Example 1: foliar treatment, upland pot test, barnyardgrass. The settings on record: Echinochloa crus-galli, read-out: Growth inhibition rate (%) Barnyardgrass; for inhibition at 31 g/ha: 31 g/ha active ingredient, observed 17th to 25th day after application; for inhibition at 63 g/ha: 63 g/ha active ingredient, observed 21st day after application.

Test [2] deals with velvetleaf (Abutilon theophrasti MEDIC.). Kind of test: Test Example 1: foliar treatment, upland pot test, velvetleaf. The note with it: Abutilon theophrasti, read-out: Growth inhibition rate (%) Velvetleaf; for inhibition at 31 g/ha: 31 g/ha active ingredient, observed 17th to 25th day after application; for inhibition at 63 g/ha: 63 g/ha active ingredient, observed 21st day after application. The method, boiled down:
(§1)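 Upland soil pots, sown; foliar spray at pigweed cotyledon–2.0 leaf, velvetleaf 0.1–1.5 leaf, rice 1.0–3.0 leaf, wheat 1.7–3.4 leaf. WP/EC formulations, prescribed a.i. rate, 500 L/ha spray volume + 0.1 vol % spreader. Visual % inhibition, d17–25.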

Test [3] relates to prickly sida (Sida spinosa L.). Kind of test: Test Example 1: foliar treatment, upland pot test, prickly sida. The settings on record: Sida spinosa, read-out: Growth inhibition rate (%) Prickly sida; for inhibition at 31 g/ha: 31 g/ha active ingredient, observed 17th to 25th day after application; for inhibition at 63 g/ha: 63 g/ha active ingredient, observed 21st day after application.

In test [4] the test system is velvetleaf (Abutilon theophrasti MEDIC.). Kind of test: Test Example 2: soil application on the day after sowing, velvetleaf. The note with it: Abutilon theophrasti, read-out: Growth inhibition rate (%) Velvetleaf; for inhibition at 250 g/ha: 250 g/ha active ingredient, observed 19th to 28th day after application. In outline:
(§2)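 Seeds sown in upland field soil in 1/170,000 ha pots; next day, wettable powder or emulsifiable concentrate formulations were diluted in water at 500 L/ha and sprayed onto the soil. Growth was scored visually 19–28 days after application as growth inhibition (0% = untreated, 100% = complete kill).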

For test [5], the system named is wheat (Triticum spp.). Nature of the test: Test Example 1: foliar treatment, upland pot test, wheat. The note with it: Triticum, read-out: Growth inhibition rate (%) Wheat; for inhibition at 31 g/ha: 31 g/ha active ingredient, observed 17th to 25th day after application; for inhibition at 63 g/ha: 63 g/ha active ingredient, observed 21st day after application. In outline: as §1

The subject of test [6] is redroot pigweed (Amaranthus retroflexus L.). Kind of test: Test Example 1: foliar treatment, upland pot test, redroot pigweed. The settings on record: Amaranthus retroflexus, read-out: Growth inhibition rate (%) Redroot pigweed; for inhibition at 31 g/ha: 31 g/ha active ingredient, observed 17th to 25th day after application; for inhibition at 63 g/ha: 63 g/ha active ingredient, observed 21st day after application. In outline:
as §1

Test [7] relates to green foxtail (Setaria viridis L.). Kind of test: Test Example 2: soil application on the day after sowing, green foxtail. The note with it: Setaria viridis, read-out: Growth inhibition rate (%) Green foxtail; for inhibition at 250 g/ha: 250 g/ha active ingredient, observed 19th to 28th day after application. The method, boiled down: as §2
For test [8], the system named is wheat (Triticum spp.). Nature of the test: Test Example 2: soil application on the day after sowing, wheat. The note with it: Triticum, read-out: Growth inhibition rate (%) Wheat; for inhibition at 250 g/ha: 250 g/ha active ingredient, observed 19th to 28th day after application. The method, boiled down: as §2
In test [9] the test system is soybean (Glycine max Merr.). Nature of the test: Test Example 2: soil application on the day after sowing, soybean. The note with it: Glycine max, read-out: Growth inhibition rate (%) Soybean; for inhibition at 250 g/ha: 250 g/ha active ingredient, observed 19th to 28th day after application. The method, boiled down:
as §2

Test [10] relates to green foxtail (Setaria viridis L.). Kind of test: Test Example 1: foliar treatment, upland pot test, green foxtail. The settings on record: Setaria viridis, read-out: Growth inhibition rate (%) Green foxtail; for inhibition at 31 g/ha: 31 g/ha active ingredient, observed 17th to 25th day after application; for inhibition at 63 g/ha: 63 g/ha active ingredient, observed 21st day after application.

For test [11], the system named is crabgrass (Digitaria sanguinalis L.). Kind of test: Test Example 1: foliar treatment, upland pot test, crabgrass. The settings on record: Digitaria sanguinalis, read-out: Growth inhibition rate (%) Crabgrass; for inhibition at 31 g/ha: 31 g/ha active ingredient, observed 17th to 25th day after application; for inhibition at 63 g/ha: 63 g/ha active ingredient, observed 21st day after application.

Test [12] has as its system redroot pigweed (Amaranthus retroflexus L.). Nature of the test: Test Example 2: soil application on the day after sowing, redroot pigweed. The settings on record: Amaranthus retroflexus, read-out: Growth inhibition rate (%) Redroot pigweed; for inhibition at 250 g/ha: 250 g/ha active ingredient, observed 19th to 28th day after application. The method, boiled down:
as §2

Test [13] deals with crabgrass (Digitaria sanquinalis L.). Kind of test: Test Example 2: soil application on the day after sowing, crabgrass. The note with it: Digitaria, read-out: Growth inhibition rate (%) Crabgrass; for inhibition at 250 g/ha: 250 g/ha active ingredient, observed 19th to 28th day after application. In outline:
as §2

The test system of test [14] is corn (Zea mays L.). Kind of test: Test Example 1: foliar treatment, upland pot test, corn. The settings on record: Zea mays, read-out: Growth inhibition rate (%) Corn; for inhibition at 31 g/ha: 31 g/ha active ingredient, observed 17th to 25th day after application; for inhibition at 63 g/ha: 63 g/ha active ingredient, observed 21st day after application.
For test [15], the system named is rice (Oryza sativa L.). Kind of test: Test Example 1: foliar treatment, upland pot test, rice. The settings on record: Oryza sativa, read-out: Growth inhibition rate (%) Rice; for inhibition at 31 g/ha: 31 g/ha active ingredient, observed 17th to 25th day after application; for inhibition at 63 g/ha: 63 g/ha active ingredient, observed 21st day after application. The method, boiled down: as §1

Test [16] relates to corn (Zea mays L.). Nature of the test: Test Example 2: soil application on the day after sowing, corn. The settings on record: Zea mays, read-out: Growth inhibition rate (%) Corn; for inhibition at 250 g/ha: 250 g/ha active ingredient, observed 19th to 28th day after application. In outline: as §2
Test [17] relates to soybean (Glycine max Merr.). Kind of test: Test Example 1: foliar treatment, upland pot test, soybean. The settings on record: Glycine max, read-out: Growth inhibition rate (%) Soybean; for inhibition at 31 g/ha: 31 g/ha active ingredient, observed 17th to 25th day after application; for inhibition at 63 g/ha: 63 g/ha active ingredient, observed 21st day after application.
In test [18] the test system is barnyardgrass (Echinochloa crus-galli L.). Kind of test: Test Example 2: soil application on the day after sowing, barnyardgrass. The settings on record: Echinochloa crus-galli, read-out: Growth inhibition rate (%) Barnyardgrass; for inhibition at 250 g/ha: 250 g/ha active ingredient, observed 19th to 28th day after application. In outline:
as §2

In test [19] the test system is prickly sida (Sida spinosa L.). Nature of the test: Test Example 2: soil application on the day after sowing, prickly sida. The note with it: Sida spinosa, read-out: Growth inhibition rate (%) Prickly sida; for inhibition at 250 g/ha: 250 g/ha active ingredient, observed 19th to 28th day after application. The method, boiled down: as §2
The test system of test [20] is rice (Oryza sativa L.). Nature of the test: Test Example 2: soil application on the day after sowing, rice. The settings on record: Oryza sativa, read-out: Growth inhibition rate (%) Rice; for inhibition at 250 g/ha: 250 g/ha active ingredient, observed 19th to 28th day after application. In outline: as §2
The mark [21] stands for this setting: 500 g/ha active ingredient, observed 20th day after application.

As to `Cc1c(C(=O)c2cnn(C)c2O)ccc(S(C)(=O)=O)c1C#N` [compound 171], the inhibition at 31 g/ha in test [1] was 80%; in test [2], 75%; in test [3], 70%; in the test with wheat (Triticum spp.) [5], 0%; in test [6], 80%; in test [10] it was 70%. The inhibition at 31 g/ha in test [11] is 60%; with corn (Zea mays L.) [14] it was 0%; in the test with rice (Oryza sativa L.) [15], 40%; in test [17], 70%. For the same compound, the inhibition at 250 g/ha stood at 40% in [4]; 40% in test [7]; 0% in the test on wheat (Triticum spp.) [8]; 10% in test [9]; 100% in test [12]; 80% in [13]. For the same compound, the inhibition at 250 g/ha stood at 0% with corn (Zea mays L.) [16], 70% in [18], 50% in [19] and 10% in the test on rice (Oryza sativa L.) [20].
Regarding `Cn1ncc(C(=O)c2ccc(S(C)(=O)=O)c(Cl)c2Cl)c1O` [compound 238], the inhibition at 31 g/ha in test [1] stood at 0%; in test [2] it was 30%; in test [3], 0%; in the test on wheat (Triticum spp.) [5] it was 0%; in [6] it was 50%; in test [10], 0%. In addition, the inhibition at 31 g/ha in test [11] was determined as 0%; in the test with corn (Zea mays L.) [14], 0%; in the test on rice (Oryza sativa L.) [15], 0%; in test [17], 50%. For the same compound, the inhibition at 250 g/ha in [4] came to 0%; in test [7], 20%; in the test with wheat (Triticum spp.) [8] it was 0%; in test [9] it was 0%; in [12] it was 30%; in test [13], 20%. Moreover, the inhibition at 250 g/ha (in the test on corn (Zea mays L.) [16]; in test [18]; in [19]; in the test on rice (Oryza sativa L.) [20]) was 0% each time.
`CCn1ncc(C(=O)c2ccc(S(C)(=O)=O)c(OCCC3OCCO3)c2Cl)c1O` [compound 244]: the inhibition at 63 g/ha turned out to be 50% in test [1]; 70% in test [2]; 50% in test [3]; 0% with wheat (Triticum spp.) [5]; 80% in test [6]; 40% in test [10]. The inhibition at 63 g/ha stood at 20% in test [11], 0% with corn (Zea mays L.) [14], 10% in the test on rice (Oryza sativa L.) [15] and 70% in test [17]. In addition, the inhibition at 250 g/ha in [4] is 80%; in [7], 70%; with wheat (Triticum spp.) [8], 0%; in test [9] it was 0%; in [12] it was 90%; in test [13], 90%. The inhibition at 250 g/ha in the test on corn (Zea mays L.) [16] came out at 0%; in test [18], 100%; in test [19], 60%; with rice (Oryza sativa L.) [20] it was 80%.
Regarding `Cn1ncc(C(=O)c2ccc(S(C)(=O)=O)c(S(C)(=O)=O)c2Cl)c1O` [compound 247], the inhibition at 63 g/ha came out at 90% in [1]; 80% in test [2]; 90% in [3]; 0% in the test with wheat (Triticum spp.) [5]; 100% in [6]; 50% in [10]. Moreover, the inhibition at 63 g/ha was 30% in test [11], 0% in the test on corn (Zea mays L.) [14], 20% in the test on rice (Oryza sativa L.) [15] and 100% in [17]. In addition, the inhibition at 500 g/ha in test [4] (setting [21]) turned out to be 100%; in [7] (setting [21]), 100%; in the test with wheat (Triticum spp.) [8] (setting [21]), 10%; in test [9] (setting [21]) it was 50%; in test [12] (setting [21]) it was 100%; in [13] (setting [21]) it was 100%. Besides, the inhibition at 500 g/ha is 0% in the test with corn (Zea mays L.) [16] (setting [21]), 100% in test [18] (setting [21]), 75% in [19] (setting [21]) and 98% in the test with rice (Oryza sativa L.) [20] (setting [21]).

In general, inhibition refers to the relative decrease from the control value, in per cent.
